Reference: ChEMBL document CHEMBL1201862, “PubChem BioAssay data set” (2004)
Calls of active or inactive are those of the source.

Assays:
[1] = inhibitors of SNCA 5'UTR-driven reporter translation, confirmation, H4 neuroglioma cells, luminescence (AID 1988); assay type: functional, cell-based
[2] = LGR2 antagonists, dose response, cell-based, HEK293, CRE-luciferase reporter, cherry pick, set 2 (AID 743343); assay type: functional;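 note: transfected cells were stimulated with diluted bursicon conditioned medium after compound addition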
[3] = HepG2 cell cytotoxicity, dose response, cytotoxicity control, plate reader, cherry-pick, antagonist series (AID 743416); assay type: functional, cell-based
[4] = target: Luciferin 4-monooxygenase (Photuris pensylvanica, UniProt Q27757); assay: firefly luciferase enzyme inhibitors, dose response, counter-screen for HSF-1 reporter inhibitor project, biochemical, Cell Titer Glo, luminescence, cherry-picks (AID 588847)
[5] = MC4R antagonists, dose response, counter-screen for LGR2 antagonist project, cell-based, plate reader, cherry pick (AID 743444); assay type: functional;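 note: transfected HEK 293 cells stimulated with alpha-MSH peptide; potency of inhibitors of the alpha-MSH evoked signal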
[6] = A549 cell cytotoxicity, dose response, cytotoxicity control, plate reader, cherry-pick, antagonist series (AID 743412); assay type: functional, cell-based
[7] = HEK293 cell cytotoxicity, dose response, cytotoxicity control, plate reader, cherry-picked samples (AID 743446); assay type: functional, cell-based
ORF 73 = ORF 73 (Human herpesvirus 8, UniProt O40947); assay: inhibitors of C-LANA binding to LBS DNA, dose response, biochemical, fluorescence polarization, cherry-picked samples (AID 504725); set-up: species or system Human gammaherpesvirus 8;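 note: fluorescence polarization of a labeled DNA duplex reporting LANA DNA binding; potency is for inhibitors that block LANA binding to the DNA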
[8] = target: Induced myeloid leukemia cell differentiation protein Mcl-1 (Homo sapiens, UniProt Q07820); assay type: functional
HeLa = assay: HeLa cell cytotoxicity, dose response, cytotoxicity control, 24 h, cherry-picked samples (AID 504726); assay type: functional, cell-based; details: Homo sapiens;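 note: potency for cytotoxicity as loss of luminescence signal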
[9] = target: Beta-adrenergic receptor kinase 1 (Homo sapiens, UniProt P25098); assay: aptamer displacement from bead-bound GRK2 – biochemical, cherry pick 1, bead flow cytometry, dose response (AID 504500)
[10] = target: T1, Small ubiquitin-related modifier 1 (Homo sapiens, UniProt P63165); assay: inhibitors of SUMO1 peptide binding, dose response, biochemical, fluorescence polarization, uHTS hits (AID 624382); assay type: functional; details: read-out: IC50_Mean
[11] = target: Glutathione-S-transferase (Schistosoma japonicum, UniProt Q26513); assay: biotin-GST/anti-GST TR-FRET signal inhibitors, dose response, artefact control for Vif-APOBEC3G degradation inhibitor project, biochemical (AID 1117362); assay type: functional
[12] = target: T1, Small ubiquitin-related modifier 1; assay: inhibitors of SUMO1 partner interactions, dose response, biochemical, FRET (AID 624383); assay type: functional; details: read-out: IC50_Mean
Genome polyprotein = Genome polyprotein (dengue virus type 2, UniProt P29990); assay: Dengue-2 NS5 methyltransferase inhibitors, primary screen, biochemical, confirmation dose response (AID 588689); assay type: functional
[13] = target: Nucleotide-binding oligomerization domain-containing protein 2 (Homo sapiens, UniProt Q9HC29); assay: NOD2 signaling inhibitors, cell-based, luminescence, uHTS, HEK293 (AID 1566); assay type: functional
HEK293 [14] = assay: NOD2 signaling inhibitors in MDP-stimulated cells, cell-based, uHTS, luminescence (AID 2001); assay type: functional; details: Homo sapiens
HEK293 [15] = assay: NOD1 signaling inhibitors, primary screen, cell-based, luminescence, uHTS (AID 1578); assay type: functional; details: Homo sapiens
HEK293 [16] = assay: cells; assay type: functional, cell-based; details: Homo sapiens
H4 = assay: Inhibitors of Prion Protein 5' UTR mRNA Measured in Cell-Based System Using Plate Reader - 2078-01_Inhibitor_Dose_DryPowder_Activity. [Related pubchem assays (depositor defined):AID488894]; assay type: functional; details: Homo sapiens
HEK293 [17] = assay: cells; assay type: functional, cell-based; details: Homo sapiens; remark: listed apart in the source
HEK293 [18] = assay: cells; assay type: functional, cell-based; details: Homo sapiens; remark: listed apart in the source
[19] = target: Type-1 angiotensin II receptor (Homo sapiens, UniProt P30556); assay: AT1 receptor antagonists, dose response, selectivity assay for APJ receptor antagonist project, cell-based, uHTS hits (AID 463214); assay type: functional;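 note: antagonist potency against angiotensin II stimulated AT1 response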
Beta-galactosidase = Beta-galactosidase (Escherichia coli, UniProt Q8VNN2); assay: PubChem AID 485352; assay type: functional
INS1 = assay: protection from cytokine-induced mitochondrial depolarization, dose response, cell-based, INS-1E, JC-1 fluorescence ratio, dry powder (AID 488931); assay type: functional; details: Rattus norvegicus
Cytochrome P450 3A4 = Cytochrome P450 3A4 (Homo sapiens, UniProt P08684); details: Potency;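 note: confirmatory qHTS run detecting inhibitors and substrates of CYP3A4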
[20] = target: Voltage-gated inwardly rectifying potassium channel KCNH2 (Homo sapiens, UniProt Q12809); details: Potency;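 note: confirmatory quantitative high-throughput screen measuring inhibition of hERG channel activity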
Major prion protein = Major prion protein (Homo sapiens, UniProt P04156); assay type: functional, cell-based
[21] = target: FAD-linked sulfhydryl oxidase ALR (Homo sapiens, UniProt P55789); assay: inhibitors of human ALR sulfhydryl oxidase, dose response, biochemical, H2O2 detection, luminescence, cherry-pick (AID 493248)
[22] = target: T2, Polyadenylate-binding protein 1 (Homo sapiens, UniProt P11940); assay: PABP1 MLLE–PAM2 binding inhibitor potency, dose response, biochemical, fluorescence polarization, FITC-PAM2 peptide (AID 602259); assay type: functional; details: read-out: IC50_Mean
[23] = target: Dual specificity tyrosine-phosphorylation-regulated kinase 1A (Rattus norvegicus, UniProt Q63470); assay type: biochemical, Homo sapiens
[24] = target: T3, Corticotropin-releasing factor receptor 2/Corticotropin-releasing factor-binding protein (Homo sapiens, UniProt P24387+Q13324); assay: activators of CRF receptor 2 with binding protein – uHTS hits, confirmation (AID 602473); assay type: functional; details: read-out: EC50_Mean
T3 sequence (Q13324 whole entry): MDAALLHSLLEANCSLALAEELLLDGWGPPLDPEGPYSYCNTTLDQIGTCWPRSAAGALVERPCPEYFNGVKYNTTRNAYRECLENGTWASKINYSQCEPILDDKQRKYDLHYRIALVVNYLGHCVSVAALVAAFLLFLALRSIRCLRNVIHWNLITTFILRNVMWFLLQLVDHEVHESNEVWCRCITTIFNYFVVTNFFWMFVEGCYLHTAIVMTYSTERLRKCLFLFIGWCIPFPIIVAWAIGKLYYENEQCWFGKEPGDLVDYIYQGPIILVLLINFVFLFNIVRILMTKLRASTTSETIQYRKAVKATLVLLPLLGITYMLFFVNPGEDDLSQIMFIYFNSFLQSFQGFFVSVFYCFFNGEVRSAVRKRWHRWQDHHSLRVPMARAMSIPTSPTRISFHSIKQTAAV
T3 sequence (P24387 whole entry): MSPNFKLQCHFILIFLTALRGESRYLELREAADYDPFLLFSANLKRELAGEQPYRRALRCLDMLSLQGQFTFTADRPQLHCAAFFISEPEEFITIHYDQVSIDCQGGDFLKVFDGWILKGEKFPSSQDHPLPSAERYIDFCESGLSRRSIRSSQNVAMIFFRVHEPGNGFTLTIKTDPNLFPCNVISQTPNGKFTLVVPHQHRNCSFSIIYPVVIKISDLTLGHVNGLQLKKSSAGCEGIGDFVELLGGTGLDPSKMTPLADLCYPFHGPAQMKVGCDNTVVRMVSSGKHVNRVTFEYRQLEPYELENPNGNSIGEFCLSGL

[25] = target: T4, Rac GTPase-activating protein 1 (Homo sapiens, UniProt Q9H0H5); assay: MgcRacGAP GTPase-activating activity inhibitors, confirmation, biochemical, ADP Hunter fluorescence, primary and confirmatory (AID 624330); assay type: functional
T4 sequence (Q9H0H5 whole entry): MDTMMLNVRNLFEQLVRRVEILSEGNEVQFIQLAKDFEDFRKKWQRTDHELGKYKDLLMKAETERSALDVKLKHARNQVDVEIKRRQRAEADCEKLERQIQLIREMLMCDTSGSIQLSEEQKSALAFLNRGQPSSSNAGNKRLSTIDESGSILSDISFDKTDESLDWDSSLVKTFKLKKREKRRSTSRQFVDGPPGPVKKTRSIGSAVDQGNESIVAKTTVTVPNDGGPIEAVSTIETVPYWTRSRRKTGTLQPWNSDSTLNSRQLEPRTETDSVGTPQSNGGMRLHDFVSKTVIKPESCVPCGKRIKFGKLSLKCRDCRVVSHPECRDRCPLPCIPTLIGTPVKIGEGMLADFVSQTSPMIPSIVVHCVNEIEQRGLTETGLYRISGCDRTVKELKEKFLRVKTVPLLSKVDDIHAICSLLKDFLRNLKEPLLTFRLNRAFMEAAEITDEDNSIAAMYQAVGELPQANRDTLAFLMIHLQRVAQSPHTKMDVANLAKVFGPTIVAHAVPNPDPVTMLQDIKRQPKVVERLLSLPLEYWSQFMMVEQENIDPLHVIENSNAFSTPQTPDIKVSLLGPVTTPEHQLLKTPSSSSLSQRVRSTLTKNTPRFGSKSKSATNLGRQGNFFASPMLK

[26] = target: T5, RNA-binding protein pos-1 (Caenorhabditis elegans, UniProt G5EF15); assay: inhibitors of POS-1/mex-3 RNA binding, dose response, biochemical, fluorescence polarization (AID 1964);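 note: purified POS-1 fused to maltose binding protein made in E. coli; potency of compounds blocking POS-1 binding to fluorescent RNA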
T5 sequence (G5EF15 whole entry): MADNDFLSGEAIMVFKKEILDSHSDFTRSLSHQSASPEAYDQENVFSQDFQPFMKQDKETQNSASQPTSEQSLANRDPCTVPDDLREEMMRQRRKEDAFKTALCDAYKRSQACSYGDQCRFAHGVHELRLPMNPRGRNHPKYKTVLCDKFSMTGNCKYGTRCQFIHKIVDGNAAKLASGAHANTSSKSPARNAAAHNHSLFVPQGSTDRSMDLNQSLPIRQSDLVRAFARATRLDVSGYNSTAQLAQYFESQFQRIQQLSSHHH

[27] = target: T6, Zinc finger protein mex-5 (Caenorhabditis elegans, UniProt Q9XUB2); assay: MEX-5/TCR-2 RNA interaction inhibitors, dose response, biochemical, C. elegans, fluorescence polarization (AID 1960)
T6 sequence (Q9XUB2 whole entry): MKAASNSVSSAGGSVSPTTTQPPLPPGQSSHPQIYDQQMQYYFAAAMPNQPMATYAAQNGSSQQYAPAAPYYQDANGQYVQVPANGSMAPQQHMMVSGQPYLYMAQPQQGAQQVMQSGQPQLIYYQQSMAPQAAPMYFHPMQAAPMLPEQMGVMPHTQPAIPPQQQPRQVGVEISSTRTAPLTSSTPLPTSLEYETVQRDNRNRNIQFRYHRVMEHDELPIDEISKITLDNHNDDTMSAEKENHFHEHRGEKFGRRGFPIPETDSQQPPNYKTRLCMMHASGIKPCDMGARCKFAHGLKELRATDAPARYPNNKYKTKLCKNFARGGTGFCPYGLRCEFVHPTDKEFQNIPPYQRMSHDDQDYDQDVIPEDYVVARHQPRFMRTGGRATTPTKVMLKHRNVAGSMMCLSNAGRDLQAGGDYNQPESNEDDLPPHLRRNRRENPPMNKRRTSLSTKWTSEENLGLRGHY

[28] = target: T2, Polyadenylate-binding protein 1; assay: PABP1 MLLE–PAM2 interaction inhibitors, dose response, miRNA deadenylation inhibitor project, biochemical, fluorescence polarization, Cy5-PAM2 peptide, secondary (AID 602260); assay type: functional; details: read-out: IC50_Mean
[29] = target: T3, Corticotropin-releasing factor receptor 2/Corticotropin-releasing factor-binding protein; assay: Dose Response confirmation of uHTS hits for small molecule antagonists of the CRF-binding protein and CRF-R2 receptor complex.; assay type: functional; details: read-out: IC50_Mean

N#CCCCC#Cc1ccc2c(c1)COc1c3ccccc3nn1-2
EC50 [1]: 10.1 µM (inconclusive)
AC50 [2]: 6.24 µM (active)
AC50 [3]: > 52 µM (inactive)
AC50 [4]: 1.76 µM (active)
AC50 [5]: 7.77 µM (active)
AC50 [6]: > 52 µM (inactive)
AC50 [7]: > 52 µM (inactive)

O=C(O)c1cccc2c1NC(C(=O)O)C1CC(Sc3ccccc3[N+](=O)[O-])C(Cl)C21 (centres undefined)
AC50 (ORF 73): 59.6 µM (active)
IC50 [8]: 2.17 µM (active)
AC50 (HeLa): 179 µM (active)
EC50 [9]: 19.4 µM (inactive)
IC50 [10]: > 66.6 µM (inactive)
IC50 [11]: > 100 µM (active)
IC50 [12]: 5.21 µM (active)
IC50 (Genome polyprotein): 38.9 µM (active)

COc1cc(NC(=O)c2cccs2)c(C(=O)OCC(=O)c2cc(C)n(-c3ccccc3)c2C)cc1OC
EC50 [13]: 7.27 µM (active)
IC50 (HEK293 [14]): > 20 µM (inactive)
EC50 (HEK293 [15]): > 20 µM (inactive)
AC50 [2]: 9.95 µM (active)
IC50 (HEK293 [16]): 1.19 µM (active)
AC50 (H4): 2.17 µM (active)
IC50 (HEK293 [17]): > 20 µM (inactive)
AC50 [5]: 3.07 µM (active)
IC50 (HEK293 [18]): > 20 µM (inactive)

Cc1cc(C(=O)NNc2ccc(C)c(C)c2)no1
IC50 [19]: 8.58 µM (active)
EC50 (Beta-galactosidase): > 40 µM (inactive)

COc1ccc(S(=O)(=O)N(C)C[C@@H]2Oc3c(NC(=O)Nc4c(C)noc4C)cccc3C(=O)N([C@@H](C)CO)C[C@H]2C)cc1
AC50 (INS1): 28 µM (active)

CCOP(=S)(OCC)SCCSCC [DISULFOTON]
AC50 (Cytochrome P450 3A4): 20 µM (inconclusive)
AC50 [20]: 1 µM (inconclusive)

S=c1[nH]c2ccccc2n2c(=S)[nH]nc12
IC50 (Major prion protein): > 1.7 µM (active)
AC50 [21]: 2.35 µM (active)
IC50 [22]: > 66 µM (inactive)
AC50 [23]: 8 µM (active)
EC50 [24]: > 53 µM (inactive)
IC50 [25]: 56.5 µM (active)
EC50 [26]: 10.3 µM (inconclusive)
EC50 [27]: 6.1 µM (active)
IC50 [28]: > 66 µM (inactive)
IC50 [29]: > 47.1 µM (inactive)
